# Assays:
# Type in all cases: in vivo, male F344/N rats
# [1] = 90-day rat study: 24 h urinary excretion of OTA and OTA-glucuronides, LC–MS/MS with and without β-glucuronidase hydrolysis; conditions: for Urinary excretion, fraction of the administered dose / Urinary excretion: 5 days/week; for Urinary excretion, fraction of the administered dose: 24 h urine
# Procedure: (§1) 90-day study: Male F344/N rats (6–7 weeks old) were purchased from Harlan-Winkelmann, Borchen, Germany. Animals were housed in groups of 5 in Macrolon type-4 cages and allowed free access to pelleted standard rat maintenance diet (SSNIFF, Soest, Germany) and tap water. After a week of acclimatization, rats (n = 5/dose) were exposed to OTA dissolved in corn oil by oral gavage at doses of 0, 21, 70 or 210 µg/kg bw for 2, 4 or 13 weeks (5 days per week). For urine collection, animals were transferred into metabolic cages (Tecniplast Metabolic Cage—Rats Over 300 g; Tecniplast, Italy) 48 h prior to necropsy and fasted for 20 h but allowed free access to tap water. Urine was collected for 24 h on ice, aliquoted and stored at −20 °C until further analysis.
# (§2) Duplicate analysis of OTA in urine samples with and without enzymatic hydrolysis allowed for indirect measurement of glucuronides, whereby an increase in the concentration of OTA in the samples incubated with enzyme compared to those without enzymatic treatment reflected the hydrolyzed glucuronides. Aliquots of rat urine (125 µL) were mixed with 0.1 M sodium acetate (104 µL; pH = 5). For analysis of the concentration of OTA without enzymatic hydrolysis, an aliquot (30 µL) of this solution was removed and mixed with 7 µL acetonitrile. The remaining solution (199 µL) was incubated with β-glucuronidase (1.65 µL; <100,000 units/mL) at 37 °C for 1 h. Hydrolysis was terminated by addition of ice-cold acetonitrile (50 µL) and centrifugation (15 min., 4 °C, 20,000× g). To 98 µL supernatant, 2 µL isotopically labeled ^13C20-OTA in acetonitrile (14-day study: 5 µg/mL; 90-day study: 1 µg/mL) was added as an internal standard. For analysis, 10 µL of each sample were injected into the LC–MS system and analyzed using the method described below. A calibration curve was prepared from solutions of OTA and the isotopically labeled ^13C20-OTA internal standard in acetonitrile and subsequent dilution with urine of a control animal.
# (§3) LC–MS/MS analyses were performed on an Agilent 1100 series LC coupled to an API 2000/Q-Trap mass spectrometer (Applied Biosystems/MDS Sciex, Concord, Canada). Samples were injected into the LC–MS/MS system through an Agilent 1100 series autosampler. Separations were carried out on a ReproSil-Pur C18 AQ column (2 mm × 150 mm, 5 µm; Dr. Maisch; Ammerbuch, Germany). Gradient elution of OTA-derived metabolites was carried out with water + 0.1% formic acid (solvent A) and acetonitrile (solvent B). Initially, solvent A was held isocratic for 5 min at 100%, followed by a linear gradient to 95% B in 5 min. These conditions were held for further 5 min. Within 1 min, the gradient decreased linearly to 0% B and remained at initial conditions until the end of analysis (30 min). A flow rate of 0.2 mL/min was used. For each run, 10 µL of the respective sample were injected by the autosampler.
# (§4) The API 2000/Q-Trap mass spectrometer was operated with a Turbo Ion Spray source in negative ion mode with a voltage of −4000 V. Spectral data were recorded with N2 as the heater gas at 450 °C and as the collision gas (CAD = −2) in multiple reaction monitoring mode (MRM).
# [2] = 14-day rat study: 24 h urinary excretion of OTA and OTA-glucuronides, LC–MS/MS with and without β-glucuronidase hydrolysis; conditions: for Urinary excretion / Urinary excretion, fraction of the administered dose: 2 mg OTA/kg bw oral, 5 d/week; for Urinary excretion, fraction of the administered dose: 24 h urine
# Procedure: (§5) 14-day study: Male F344 rats (170–190 g) were purchased from Charles-River Laboratories, Sulzfeld, Germany. Animals had free access to water and standard diet (Altromin) and were kept under standard conditions (12 h day/night cycle, temperature 21–23 °C, humidity 45–55%). Rats were transferred to metabolic cages (Tecniplast Metabolic Cage—Rats Over 300 g; Tecniplast, Italy) for collection of urine 3 days prior to dosing. Animals were administered OTA dissolved in corn oil by oral gavage at 0, 0.25, 0.5, 1.0 and 2.0 mg/kg bw for 2 weeks (5 days per week). Urine was collected every 12 h on day 1 of treatment and every 24 h thereafter on ice, aliquoted and stored at −20 °C until further analysis.
# as §2, §3, §4
# [3] = Direct LC–MS/MS analysis of OTA metabolites in urine of OTA-treated rats; conditions: OTA up to 2 mg/kg bw, negative ionization mode
# Procedure: Archived urine samples from previous repeated dose oral toxicity studies on OTA in male F344/N rats were used. The studies were performed according to national animal welfare regulations after authorization by the local authorities (Regierung von Unterfranken, AZ 621-2531.01-9/98 and AZ 54-2531.01-59/05).
# as §5, §1
# Urine samples were diluted with acetonitrile (2:1), vortexed and cleared via centrifugation (4 °C, 15 min., 2000× g) to precipitate proteins. Of the resulting supernatant, 10 µL were injected into the LC–MS system and analyzed using the method described below.
# as §3, §4
# In addition to MRM, constant neutral loss of 129 amu in the negative ion mode based on the characteristic fragmentation pattern of mercapturic acids was used to screen for N-acetyl-cysteine conjugates of OTA. Furthermore, constant neutral loss of 176 amu in positive ion mode based on the fragmentation pattern of glucuronic acid conjugates was used to screen for OTA glucuronides.
# [4] = 4 weeks treatment, OTA 210 μg/kg bw per day oral, n = 1
compound,measurement,setting,value
"C[C@@H]1Cc2c(Cl)cc(C(=O)N[C@@H](Cc3ccccc3)C(=O)O)c(O)c2C(=O)O1 [OTA, Ochratoxin A]","Urinary excretion, fraction of the administered dose","[1]; 2 weeks treatment, OTA 21 μg/kg bw per day oral",1.9%
same,Urinary excretion,"[1]; 2 weeks treatment, OTA 21 μg/kg bw per day oral, mean ± SD",0.22 ± 0.03 nmol/24 h
same,"Urinary excretion, fraction of the administered dose","[1]; 2 weeks treatment, OTA 70 μg/kg bw per day oral",0.8%
same,Urinary excretion,"[1]; 2 weeks treatment, OTA 70 μg/kg bw per day oral, mean ± SD",0.32 ± 0.12 nmol/24 h
same,"Urinary excretion, fraction of the administered dose","[1]; 2 weeks treatment, OTA 210 μg/kg bw per day oral",1.2%
same,Urinary excretion,"[1]; 2 weeks treatment, OTA 210 μg/kg bw per day oral, mean ± SD",1.35 ± 0.36 nmol/24 h
same,"Urinary excretion, fraction of the administered dose","[1]; 4 weeks treatment, OTA 70 μg/kg bw per day oral",0.9%
same,Urinary excretion,"[1]; 4 weeks treatment, OTA 70 μg/kg bw per day oral, mean ± SD",0.51 ± 0.09 nmol/24 h
same,"Urinary excretion, fraction of the administered dose",[1]; [4],4.6%
same,Urinary excretion,[1]; [4],5.86 nmol/24 h
same,"Urinary excretion, fraction of the administered dose","[1]; 13 weeks treatment, OTA 21 μg/kg bw per day oral",1.1%
same,Urinary excretion,"[1]; 13 weeks treatment, OTA 21 μg/kg bw per day oral, mean ± SD",0.18 ± 0.07 nmol/24 h
same,"Urinary excretion, fraction of the administered dose","[1]; 13 weeks treatment, OTA 70 μg/kg bw per day oral",1.9%
same,Urinary excretion,"[1]; 13 weeks treatment, OTA 70 μg/kg bw per day oral, mean ± SD",0.97 ± 0.36 nmol/24 h
same,"Urinary excretion, fraction of the administered dose","[1]; 13 weeks treatment, OTA 210 μg/kg bw per day oral",2.5%
same,Urinary excretion,"[1]; 13 weeks treatment, OTA 210 μg/kg bw per day oral, mean ± SD",3.88 ± 1.50 nmol/24 h
same,Fraction of the administered dose excreted in urine,"[1]; range over 90-day study, OTA 21, 70 and 210 µg/kg (5 days/week)",0.8 to 4.6%
same,Urinary excretion,"[2]; animal 2, day 3 of treatment",15.3 nmol/24 h
same,"Urinary excretion, fraction of the administered dose","[2]; animal 2, day 3 of treatment",1.8%
same,Urinary excretion,"[2]; animal 2, day 5 of treatment",40.3 nmol/24 h
same,"Urinary excretion, fraction of the administered dose","[2]; animal 2, day 5 of treatment",4.7%
same,Urinary excretion,"[2]; animal 2, day 7 of treatment",35.4 nmol/24 h
same,"Urinary excretion, fraction of the administered dose","[2]; animal 2, day 7 of treatment",4.1%
same,Urinary excretion,"[2]; animal 2, day 9 of treatment",32.9 nmol/24 h
same,"Urinary excretion, fraction of the administered dose","[2]; animal 2, day 9 of treatment",3.7%
same,Urinary excretion,"[2]; animal 2, day 11 of treatment",40.9 nmol/24 h
same,"Urinary excretion, fraction of the administered dose","[2]; animal 2, day 11 of treatment",4.6%
same,Urinary excretion,"[2]; animal 2, day 13 of treatment",21.0 nmol/24 h
same,"Urinary excretion, fraction of the administered dose","[2]; animal 2, day 13 of treatment",2.2%
same,Urinary excretion,"[2]; animal 3, day 3 of treatment",4.4 nmol/24 h
same,"Urinary excretion, fraction of the administered dose","[2]; animal 3, day 3 of treatment",0.5%
same,Urinary excretion,"[2]; animal 3, day 5 of treatment",30.9 nmol/24 h
same,"Urinary excretion, fraction of the administered dose","[2]; animal 3, day 5 of treatment",3.5%
same,Urinary excretion,"[2]; animal 3, day 7 of treatment",62.4 nmol/24 h
same,"Urinary excretion, fraction of the administered dose","[2]; animal 3, day 7 of treatment",6.9%
same,Urinary excretion,"[2]; animal 3, day 9 of treatment",17.8 nmol/24 h
same,"Urinary excretion, fraction of the administered dose","[2]; animal 3, day 9 of treatment",2.0%
same,Urinary excretion,"[2]; animal 3, day 11 of treatment",33.6 nmol/24 h
same,"Urinary excretion, fraction of the administered dose","[2]; animal 3, day 11 of treatment",3.7%
same,Urinary excretion,"[2]; animal 3, day 13 of treatment",48.1 nmol/24 h
same,"Urinary excretion, fraction of the administered dose","[2]; animal 3, day 13 of treatment",5.3%
same,"24 h urinary excretion, % of the daily administered dose","[2]; range over the course of the study, OTA 2 mg/kg bw for 2 weeks (5 days/week)",0.5–6.9%
same,Detection in urine of OTA-treated rats by direct LC–MS/MS (MRM),[3],consistently found

# Source: paper PMC8402547, “In Vitro and In Vivo Analysis of Ochratoxin A-Derived Glucuronides and Mercapturic Acids as Biomarkers of Exposure” (Toxins, 2021)
